This passage reports IC50 results from BindingDB's records for doi:10.1016/S0960-894X(00)80062-1 (1994).

The target of the assay is Squalene synthase (Candida albicans). As to the kind of experiment: In vitro inhibitory activity against Candida albicans squalene synthase.

pIC50: −log10 of the molar value.

As usually defined, the pIC50 is −log10 of the IC50, conventionally taken in molar units. With `C=C(CCC12CCC(C(=O)O)(O1)C(O)(C(=O)O)C(C(=O)O)O2)[C@@H](OC(C)=O)[C@H](C)Cc1ccccc1` (stereo partly drawn) [1-((4S,5R)-4-Acetoxy-5-methyl-3-methylene-6-phenyl-hexyl)-4-hydroxy-2,8-dioxa-bicyclo[3.2.1]octane-3,4,5-tricarboxylic acid], the pIC50 was 6.37.
